Patent publication US5547684A, “Cosmetic composition containing a DNA-sodium salt and methods of making and using the same” (priority 1993, dated 1996)

Assays:
HIV-1 (HTLV-IIIB) = assay: Anti-virus activity of AC-series preparations on infected cells (syncitia, p24 antigen); format: cell-based
Description: Antiviral activity of these preparations toward HIV-1 was studied using as the model, cellular cultures infected with HIV-1.
The testing of anti-virus activity was conducted using two types of interwoven cellar lines sensitive to infecting by AIDS-virus--the MT-4 cells and Yurkat tat III cells. The cells were harvested in suspension form in a PPMI 1640 medium containing 15% of fetal serum with exposure to the atmosphere characterized by 5% CO2 content, 98% humidity level and 37% C. temperature level. The cells were infected by the HTLV-IIIB culture of AIDS-1 virus in accordance with WHO recommendations for conducting scientific researches on testing pharmaceutical preparations. The methods used for determining anti-virus activity of the tested preparations are recommended for similar purposes by the WHO Reference Laboratory (Belgium) headed by Professor de Clerk who is an internationally recognized leading expert in synthesis and screening chemical preparations for AIDs treatment (I. Antimicrob. Chemoter., 1989, No. 23, Suppl. A 35-46). […]
(§1) The cells were incubated for 6 days under similar conditions and thereafter their viability was determined as well as formation of virus-induced syncytia and virus antigen (p24) using immunofermental analysis. […] The viable cells were counted using thripane blue dye-stuff in the Goryayev chamber.

[1] = test system: MT-4 cells and Yurkat tat III cells; assay: Cell viability / toxic effect on cells, AC-series preparations; format: cell-based, human
Description: The testing of anti-virus activity was conducted using two types of interwoven cellar lines sensitive to infecting by AIDS-virus--the MT-4 cells and Yurkat tat III cells. The cells were harvested in suspension form in a PPMI 1640 medium containing 15% of fetal serum with exposure to the atmosphere characterized by 5% CO2 content, 98% humidity level and 37% C. temperature level. The cells were infected by the HTLV-IIIB culture of AIDS-1 virus in accordance with WHO recommendations for conducting scientific researches on testing pharmaceutical preparations. The methods used for determining anti-virus activity of the tested preparations are recommended for similar purposes by the WHO Reference Laboratory (Belgium) headed by Professor de Clerk who is an internationally recognized leading expert in synthesis and screening chemical preparations for AIDs treatment (I. Antimicrob. Chemoter., 1989, No. 23, Suppl. A 35-46). The work was done at the Virology Institute of the U.S.S.R. Academy of Medical Sciences on MT-4 human lymphoid cells and on Yurkat tat III cells as indicated above.
as §1

white mice = assay: in vivo; details: for surviving mice / infected mice: Table 3
Description: (§2) The studies on toxicity of AC-1 and AC-4 and of aziodothymidine were conducted on non-linear white mice weighing 6 to 7 grams, making use of different concentrations of preparations per kg of weight of the animal in the volume of 0.2 ml in hypodermic, intranasal and intraabdominal injections and 0.03 ml in intracerebral injections. The animals were kept under observation for 2 weeks and then LD50 was calculated using Curber method. The lethal dose of the preparation which has caused death of 50% of the animals was considered an LD50 dose. The preparation was used as a sterile solution was a concentration of 0.05%.
(§3) The animals were kept under observation for 2 weeks and then LD50 was calculated using Curber method. The lethal dose of the preparation which caused death of 50% of the animal was considered the LD50 dose.

in vivo = details: mouse, in vivo
Description: as §2, §3

[2] = test system: HIV (HIV-IVS and HIV-1 HTLV/IIIB strains); assay: HIV suppression in vitro (syncitia, viral antigen IFA), CEM-SS and MT-4 cells; format: cell-based; details: Table 1; comparison preparation, no ratio
Description: Complexes of DNA-Na with zinc, cobalt, nickel and iron were used for HIV suppression in in vitro systems with various concentrations of the components in the complexes. AZT manufactured by "Wellcome" Company was used for comparison purposes. The antiviral activity of the preparation was tested according to the method recommended by WHPO for these purposes. CEM-SS and MT-4 reinoculated human cell lines were used. The cells were cultivated in the concentration of (0.03-0.05)*10^6 cells per 1 ml of RPMI 1640 medium with 10% calf fetal serum, […] of L-glutamine, 100 mcg/ml of gentamicin and grown in the form of a suspension. The vitality of cells was tested by dyeing them with 0.4% solution of threpane blue dye stuff. HIV-IVS and HIV-1 HTLV/IIIB strains were used as the virus sources.
The cell suspension was placed into 24 well panels, processed by various doses of preparations and then infected by HIV. The infection multiplicity was 0.01 TCD50 per cell. After that, the cultures were incubated at 37° C. in a 5% CO2 atmosphere and 98% humidity for 5-7 days up to the moment of defining the cytopathic effect of the virus upon the cell culture.
Immunophermentative analysis was used to define formation of viral antigen.

CEM-SS and MT-4 cells = assay: Cytotoxicity of preparations, threpane blue vitality of cells; format: cell-based, human; details: Table 1; comparison preparation, no ratio
Description: The antiviral activity of the preparation was tested according to the method recommended by WHPO for these purposes. CEM-SS and MT-4 reinoculated human cell lines were used. The cells were cultivated in the concentration of (0.03-0.05)*10^6 cells per 1 ml of RPMI 1640 medium with 10% calf fetal serum, 300 mg/ml of L-glutamine, 100 mcg/ml of gentamicin and grown in the form of a suspension. The vitality of cells was tested by dyeing them with 0.4% solution of threpane blue dye stuff. HIV-IVS and HIV-1 HTLV/IIIB strains were used as the virus sources.

mice = details: 10 mg/kg injected intercerebrally; cited from earlier work
normal cells = details: cited from earlier work

Q: Which “antigen (p24) content” value (HIV-1 (HTLV-IIIB); 1.0 mcm/ml, virus control 2.0 ng/ml) does the source give for Cc1cn([C@H]2C[C@H](N=[N+]=[N-])[C@@H](CO)O2)c(=O)[nH]c1=O [AZT, azidothymidine] here?
A: Its value is 1 ng/mL.

Q: And the immunofermental activity (HIV-1 (HTLV-IIIB); Table 2, virus antigen (p24), 270 mkg/ml, 6th day)?
A: The immunofermental activity was 0.1 ng/mL.

Q: And the viability at 270 µg/mL ([1]; Homo sapiens, MT4, 144 h)?
A: The viability at 270 µg/mL was 96%.

Q: And the “toxicity on the cell level” value ([1]; all the above biologically active concentrations)?
A: The value was “nontoxic”.

Q: And the “surviving mice / infected mice” value (white mice; hypoderm., 5 mg/kg)?
A: The value was 6/6.

Q: What about the “surviving mice / infected mice” value (white mice; hypoderm., 10 mg/kg) of the same compound?
A: Its value is 6/6.

Q: And the “surviving mice / infected mice” value (white mice; hypoderm., 20 mg/kg)?
A: The value was 6/6.

Q: What about the “surviving mice / infected mice” value (white mice; hypoderm., 35 mg/kg) of the same compound?
A: Its value is 6/6.

Q: And the “surviving mice / infected mice” value (white mice; hypoderm., 50 mg/kg)?
A: Its value is 6/6.

Q: And the “surviving mice / infected mice” value (white mice; hypoderm., 75 mg/kg)?
A: The value was 6/6.

Q: What about the “surviving mice / infected mice” value (white mice; in/abdom., 5 mg/kg) of the same compound?
A: The value was 6/6.

Q: What about the “surviving mice / infected mice” value (white mice; in/abdom., 10 mg/kg) of the same compound?
A: Its value is 6/6.

Q: What about the “surviving mice / infected mice” value (white mice; in/abdom., 20 mg/kg) of the same compound?
A: Its value is 6/6.

Q: And the “surviving mice / infected mice” value (white mice; in/abdom., 35 mg/kg)?
A: Its value is 6/6.

Q: What about the “surviving mice / infected mice” value (white mice; in/abdom., 50 mg/kg) of the same compound?
A: The value was 6/6.

Q: And the “surviving mice / infected mice” value (white mice; in/abdom., 75 mg/kg)?
A: The value was 6/6.

Q: What about the “surviving mice / infected mice” value (white mice; in/cerebr., 5 mg/kg) of the same compound?
A: Its value is 6/6.

Q: What about the “surviving mice / infected mice” value (white mice; in/cerebr., 10 mg/kg) of the same compound?
A: Its value is 6/6.

Q: And the “surviving mice / infected mice” value (white mice; in/cerebr., 20 mg/kg)?
A: Its value is 6/6.

Q: What about the “surviving mice / infected mice” value (white mice; in/cerebr., 35 mg/kg) of the same compound?
A: Its value is 6/6.

Q: And the “surviving mice / infected mice” value (white mice; in/cerebr., 50 mg/kg)?
A: The value was 6/6.

Q: What about the “surviving mice / infected mice” value (white mice; in/cerebr., 75 mg/kg) of the same compound?
A: The value was 6/6.

Q: And the “surviving mice / infected mice” value (white mice; in/nasal, 5 mg/kg)?
A: Its value is 6/6.

Q: What about the “surviving mice / infected mice” value (white mice; in/nasal, 10 mg/kg) of the same compound?
A: Its value is 6/6.

Q: And the “surviving mice / infected mice” value (white mice; in/nasal, 20 mg/kg)?
A: The value was 6/6.

Q: What about the “surviving mice / infected mice” value (white mice; in/nasal, 35 mg/kg) of the same compound?
A: The value was 6/6.

Q: And the “surviving mice / infected mice” value (white mice; in/nasal, 50 mg/kg)?
A: The value was 6/6.

Q: What about the “surviving mice / infected mice” value (white mice; in/nasal, 75 mg/kg) of the same compound?
A: The value was 6/6.

Q: And the toxicity (white mice; all injection methods, 5 to 50 mg/kg, except intracerebral 10 to 50 mg/kg)?
A: The toxicity was “non-toxic”.

Q: And the LD50 at 336 h (in vivo)?
A: Its LD50 at 336 h is 10 mg/kg.

Q: And the mortality at 336 h (in vivo; 10 mg/kg)?
A: The mortality at 336 h was 50%.

Q: And the IFA optical density [2]?
A: Its IFA optical density is 0.091.

Q: And the IFA viral antigen [2]?
A: Its IFA viral antigen is 0.1 ng/mL.

Q: And the “quantity of syncitia, % from the control virus” value [2]?
A: The value was 8%.

Q: And the “cytotoxicity: quantity of cells in ml of cultural liquid” value (CEM-SS and MT-4 cells)?
A: Its value is 0.61 × 10^8.

Q: And the death of animals (mice)?
A: The death of animals was 50%.

Q: And the normal cells killed (normal cells; optimal dose)?
A: The normal cells killed was “about 30%”.

Q: And the CC50 (normal cells; read-out: LD50 for cells, cells)?
A: Its CC50 is at most 100 mM.
